In patent US10450358 (dated 2019):

Assays:
[1] = Pichia pastoris GS115 expression culture supernatant (methanol induction), purified protein; conditions: 28° C., up to 72 hours
[2] = Pichia pastoris GS115 expression culture supernatant (BMMY medium, methanol induction), purified protein; conditions: 28° C., up to 72 hours

AIAEPAMIAECKTRTEVFEISRRLIDPTNANFLVWPPCVEVQRCSGCCNNRNVQCRPTQVQLRPVQVRKIEIVRKKPIFKKATVTLEDHLACKCEAVAAARPVA
not cleaved [1]: SDS-PAGE result showed that PDGF-M2 is a single band

TIAEPAMIAECKTRTEVFEISRRLIDPTNANFLVWPPCVEVQRCSGCCNNRNVQCRPTQVQLRPVQVRKIEIVRKKPIFKKATVTLEDHLACKCEAVAAARPVA
not cleaved [1]: only single band could be detected after the two mutants were reduced (WB)

TIAEPAMIAECKTRTEVFEISRRLIDRTNANFLVWPPCVEVQRCSGCCNNRNVQCRPTQVQLRPVQVRKIEIVRKKPIFKKATVTLEDHLACKCETVAAARPVT
cleaved bond [2]: Arg32-Thr33
